Experimental findings from patent US20080293775A1, “Substituted Diphenylethers, -Amines, -Sulfides and -Methanes for the Treatment of Respiratory Disease” (ASTRAZENECA AB, priority 2005, published 2008) are described below.

The assay addresses T1, rhCRTh2 (Homo sapiens, UniProt Q9Y5Y4).
T1 construct: expressed in transfected cells; host or cells: HEK cells (membrane preparation)
T1 sequence (Q9Y5Y4 1-395): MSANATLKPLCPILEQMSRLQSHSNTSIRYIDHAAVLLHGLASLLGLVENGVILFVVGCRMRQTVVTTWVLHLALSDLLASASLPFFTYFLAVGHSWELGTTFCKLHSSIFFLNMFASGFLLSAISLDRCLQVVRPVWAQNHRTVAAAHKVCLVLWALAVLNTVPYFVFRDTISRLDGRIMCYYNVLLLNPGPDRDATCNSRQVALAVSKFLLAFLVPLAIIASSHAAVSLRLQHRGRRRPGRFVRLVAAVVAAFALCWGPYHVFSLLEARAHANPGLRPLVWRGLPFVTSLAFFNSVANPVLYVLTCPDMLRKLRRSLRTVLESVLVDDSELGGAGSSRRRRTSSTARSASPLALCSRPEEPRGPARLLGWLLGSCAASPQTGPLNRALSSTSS
In words: Ligand binding assay ([3H]PGD2, SPA beads, HEK cell membranes). As to conditions: [3H]PGD2 binding to membranes of HEK cells expressing rhCRTh2/Gα16, SPA, 2 hours at RT; read-out: pIC50 value (converted). The protocol:
[^3H]PGD2 was purchased from Perkin Elmer Life Sciences with a specific activity of 100-210 Ci/mmol. All other chemicals were of analytical grade.
HEK cells expressing rhCRTh2/Gα16 were routinely maintained in DMEM containing 10% Foetal Bovine Serum (HyClone), 1 mg/ml geneticin, 2 mM L-glutamine and 1% non-essential amino acids. For the preparation of membranes, the adherent transfected HEK cells were grown to confluence in two layer tissue culture factories (Fisher, catalogue number TKT-170-070E). Maximal levels of receptor expression were induced by addition of […] sodium butyrate for the last 18 hours of culture. The adherent cells were washed once with phosphate buffered saline (PBS, 50 ml per cell factory) and detached by the addition of 50 ml per cell factory of ice-cold membrane homogenisation buffer [20 mM HEPES (pH 7.4), 0.1 mM dithiothreitol, 1 mM EDTA, 0.1M phenyl methyl sulphonyl fluoride and 100 μg/ml bacitracin]. Cells were pelleted by centrifugation at 220×g for 10 minutes at 4° C., re-suspended in half the original volume of fresh membrane homogenisation buffer and disrupted using a Polytron homogeniser for 2×20 second bursts keeping the tube in ice at all times. […] The final pellet was re-suspended in 4 ml of membrane homogenisation buffer per cell factory used and the protein content determined. […]
All assays were performed in Corning clear bottomed, white 96-well NBS plates (Fisher). […] (The optimum coating concentrations were determined for each batch of membranes) The beads were pelleted by centrifugation (800×g for 7 minutes at 4° C.), washed once with assay buffer (50 mM HEPES pH 7.4 containing 5 mM magnesium chloride) and finally re-suspended in assay buffer at a bead concentration of 10 mg/ml. […]
Compounds and DK-PGD2 were dissolved in DMSO and diluted in the same solvent to 100× the required final concentration. […] The assay plate was incubated at RT for 2 hours and counted on a Wallac Microbeta liquid scintillation counter (1 minute per well).
On to `CS(=O)(=O)c1ccc(Sc2cc(Cl)ccc2OCc2nnn[nH]2)c(Cl)c1` [Example 4], for which the IC50 is 158 nM. `CC(=O)NS(=O)(=O)Cc1ccc(Cl)cc1Oc1ccc(S(C)(=O)=O)cc1Cl` [Example 6, N-({4-chloro-2-[2-chloro-4-(methylsulfonyl)phenoxy]benzyl}sulfonyl)acetamide]: the IC50 was 158 nM. Then `CS(=O)(=O)NC(=O)Cc1ccc(Cl)c(Oc2ccc(S(C)(=O)=O)cc2Cl)c1` [Example 9, 2-{4-chloro-3-[2-chloro-4-(methylsulfonyl)phenoxy]phenyl}-N-(methylsulfonyl)acetamide], with 141 nM.
